Data from the NIST ThermoML archive (doi:10.1016/j.fluid.2017.12.001).

Assay: xn = mol fraction of the nth substance listed
Conditions: 100.9 kPa, Liquid; for speed of sound: Single path-length method; for mass density: Vibrating tube method; for viscosity: Concentric cylinders viscometry

CCCC(=O)[O-].CC[NH2+]CC [diethylammonium butanoate] + O
Conditions | mass density [kg/m3] | speed of sound [m/s] | viscosity [mPa·s]
308.15 K, x1 = 0.0123 | 996.9 | – | –
308.15 K, x1 = 0.0453 | 1000.03 | – | –
308.15 K, x1 = 0.1005 | 994.12 | – | –
308.15 K, x1 = 0.1439 | 981.01 | – | –
308.15 K, x1 = 0.2067 | 973.03 | 1659.9 | –
308.15 K, x1 = 0.3096 | 957.65 | 1581.6 | –
308.15 K, x1 = 0.4951 | 938.09 | 1494 | –
308.15 K, x1 = 0.6812 | 927.6 | 1435.5 | –
308.15 K, x1 = 0.7974 | 912 | 1424.2 | –
308.15 K, x1 = 0.974 | 907.1 | 1382.6 | –
310.65 K, x1 = 0.0122 | – | – | 1.06
310.65 K, x1 = 0.0451 | – | – | 2.43
310.65 K, x1 = 0.0999 | – | – | 5.73
310.65 K, x1 = 0.143 | – | – | 8.92
310.65 K, x1 = 0.2051 | – | – | 14.41
310.65 K, x1 = 0.3064 | – | – | 24.13
310.65 K, x1 = 0.4879 | – | – | 34.17
310.65 K, x1 = 0.6684 | – | – | 35.33
310.65 K, x1 = 0.974 | – | – | 30.78
313.15 K, x1 = 0.0122 | – | – | 1.01
313.15 K, x1 = 0.0123 | 995 | 1615.3 | –
313.15 K, x1 = 0.0451 | – | – | 2.26
313.15 K, x1 = 0.0453 | 997.13 | 1743.8 | –
313.15 K, x1 = 0.0999 | – | – | 5.25
313.15 K, x1 = 0.1005 | 991.05 | 1736.7 | –
313.15 K, x1 = 0.143 | – | – | 8.13
313.15 K, x1 = 0.1439 | 977.64 | 1702.2 | –
313.15 K, x1 = 0.2051 | – | – | 13.03
313.15 K, x1 = 0.2067 | 969.96 | 1644.3 | –
313.15 K, x1 = 0.3064 | – | – | 21.59
313.15 K, x1 = 0.3096 | 954.6 | 1565.2 | –
313.15 K, x1 = 0.4879 | – | – | 30.39
313.15 K, x1 = 0.4951 | 934.18 | 1478.3 | –
313.15 K, x1 = 0.6684 | – | – | 31.48
313.15 K, x1 = 0.6812 | 925.21 | 1418.8 | –
313.15 K, x1 = 0.7974 | 908.2 | 1408.5 | –
313.15 K, x1 = 0.974 | 903.2 | 1365.2 | 27.55
315.65 K, x1 = 0.0122 | – | – | 0.96
315.65 K, x1 = 0.0451 | – | – | 2.1
315.65 K, x1 = 0.0999 | – | – | 4.82
315.65 K, x1 = 0.143 | – | – | 7.42
315.65 K, x1 = 0.2051 | – | – | 11.82
315.65 K, x1 = 0.3064 | – | – | 19.39
315.65 K, x1 = 0.4879 | – | – | 27.14
315.65 K, x1 = 0.6684 | – | – | 28.13
315.65 K, x1 = 0.974 | – | – | 24.73
318.15 K, x1 = 0.0122 | – | – | 0.92
318.15 K, x1 = 0.0123 | 992.7 | 1617.5 | –
318.15 K, x1 = 0.0451 | – | – | 1.96
318.15 K, x1 = 0.0453 | 994.15 | 1734.2 | –
318.15 K, x1 = 0.0999 | – | – | 4.45
318.15 K, x1 = 0.1005 | 987.76 | 1722.8 | –
318.15 K, x1 = 0.143 | – | – | 6.82
318.15 K, x1 = 0.1439 | 974.31 | 1687.3 | –
318.15 K, x1 = 0.2051 | – | – | 10.76
318.15 K, x1 = 0.2067 | 967.21 | 1628.7 | –
318.15 K, x1 = 0.3064 | – | – | 17.45
318.15 K, x1 = 0.3096 | 952.7 | 1548.6 | –
318.15 K, x1 = 0.4879 | – | – | 24.28
318.15 K, x1 = 0.4951 | 930.28 | 1462.4 | –
318.15 K, x1 = 0.6684 | – | – | 25.23
318.15 K, x1 = 0.6812 | 922.19 | 1401.9 | –
318.15 K, x1 = 0.7974 | 904.3 | 1393.8 | –
318.15 K, x1 = 0.974 | 899.2 | 1348.2 | 22.26
320.65 K, x1 = 0.0122 | – | – | 0.87
320.65 K, x1 = 0.0451 | – | – | 1.84
320.65 K, x1 = 0.0999 | – | – | 4.11
320.65 K, x1 = 0.143 | – | – | 6.24
320.65 K, x1 = 0.2051 | – | – | 9.82
320.65 K, x1 = 0.3064 | – | – | 15.77
320.65 K, x1 = 0.4879 | – | – | 21.77
320.65 K, x1 = 0.6684 | – | – | 22.68
320.65 K, x1 = 0.974 | – | – | 20.08
323.15 K, x1 = 0.0122 | – | – | 0.84
323.15 K, x1 = 0.0123 | 990.45 | 1618.6 | –
323.15 K, x1 = 0.0451 | – | – | 1.72
323.15 K, x1 = 0.0453 | 991.08 | 1724.2 | –
323.15 K, x1 = 0.0999 | – | – | 3.8
323.15 K, x1 = 0.1005 | 984.28 | 1708.8 | –
323.15 K, x1 = 0.143 | – | – | 5.75
323.15 K, x1 = 0.1439 | 971.05 | 1672.4 | –
323.15 K, x1 = 0.2051 | – | – | 8.98
323.15 K, x1 = 0.2067 | 964.37 | 1612.6 | –
323.15 K, x1 = 0.3064 | – | – | 14.26
323.15 K, x1 = 0.3096 | 949.4 | 1531.7 | –
323.15 K, x1 = 0.4879 | – | – | 19.64
323.15 K, x1 = 0.4951 | 926.37 | 1446.2 | –
323.15 K, x1 = 0.6684 | – | – | 20.46
323.15 K, x1 = 0.6812 | 918.45 | 1384.7 | –
323.15 K, x1 = 0.7974 | 900.35 | 1379.5 | –
323.15 K, x1 = 0.974 | 895.2 | 1343.3 | 18.14
325.65 K, x1 = 0.0122 | – | – | 0.8
325.65 K, x1 = 0.0451 | – | – | 1.62
325.65 K, x1 = 0.0999 | – | – | 3.53
325.65 K, x1 = 0.143 | – | – | 5.31
325.65 K, x1 = 0.2051 | – | – | 8.24
325.65 K, x1 = 0.3064 | – | – | 12.94
325.65 K, x1 = 0.4879 | – | – | 17.73
325.65 K, x1 = 0.6684 | – | – | 18.49
325.65 K, x1 = 0.974 | – | – | 16.45
328.15 K, x1 = 0.0122 | – | – | 0.75
328.15 K, x1 = 0.0451 | – | – | 1.52
328.15 K, x1 = 0.0999 | – | – | 3.29
328.15 K, x1 = 0.143 | – | – | 4.92
328.15 K, x1 = 0.2051 | – | – | 7.58
328.15 K, x1 = 0.3064 | – | – | 11.79
328.15 K, x1 = 0.4879 | – | – | 16.02
328.15 K, x1 = 0.6684 | – | – | 16.76
328.15 K, x1 = 0.974 | – | – | 14.94
330.65 K, x1 = 0.0122 | – | – | 0.72
330.65 K, x1 = 0.0451 | – | – | 1.44
330.65 K, x1 = 0.0999 | – | – | 3.07
330.65 K, x1 = 0.143 | – | – | 4.57
330.65 K, x1 = 0.2051 | – | – | 6.99
330.65 K, x1 = 0.3064 | – | – | 10.77
330.65 K, x1 = 0.4879 | – | – | 14.54
330.65 K, x1 = 0.6684 | – | – | 15.23
330.65 K, x1 = 0.974 | – | – | 13.61
333.15 K, x1 = 0.0122 | – | – | 0.69
333.15 K, x1 = 0.0451 | – | – | 1.36
333.15 K, x1 = 0.0999 | – | – | 2.87
333.15 K, x1 = 0.143 | – | – | 4.25
333.15 K, x1 = 0.2051 | – | – | 6.46
333.15 K, x1 = 0.3064 | – | – | 9.86
333.15 K, x1 = 0.4879 | – | – | 13.24
333.15 K, x1 = 0.6684 | – | – | 13.86
333.15 K, x1 = 0.974 | – | – | 12.38
335.65 K, x1 = 0.0122 | – | – | 0.66
335.65 K, x1 = 0.0451 | – | – | 1.29
335.65 K, x1 = 0.0999 | – | – | 2.7
335.65 K, x1 = 0.143 | – | – | 3.96
335.65 K, x1 = 0.2051 | – | – | 5.98
335.65 K, x1 = 0.3064 | – | – | 9.05
335.65 K, x1 = 0.4879 | – | – | 12.07
335.65 K, x1 = 0.6684 | – | – | 12.64
335.65 K, x1 = 0.974 | – | – | 11.33
338.15 K, x1 = 0.0122 | – | – | 0.64
338.15 K, x1 = 0.0451 | – | – | 1.22
338.15 K, x1 = 0.0999 | – | – | 2.53
338.15 K, x1 = 0.143 | – | – | 3.7
338.15 K, x1 = 0.2051 | – | – | 5.55
338.15 K, x1 = 0.3064 | – | – | 8.33
338.15 K, x1 = 0.4879 | – | – | 11.03
338.15 K, x1 = 0.6684 | – | – | 11.56
338.15 K, x1 = 0.974 | – | – | 10.37
340.65 K, x1 = 0.0122 | – | – | 0.61
340.65 K, x1 = 0.0451 | – | – | 1.16
340.65 K, x1 = 0.0999 | – | – | 2.39
340.65 K, x1 = 0.143 | – | – | 3.46
340.65 K, x1 = 0.2051 | – | – | 5.16
340.65 K, x1 = 0.3064 | – | – | 7.68
340.65 K, x1 = 0.4879 | – | – | 10.11
340.65 K, x1 = 0.6684 | – | – | 10.59
340.65 K, x1 = 0.974 | – | – | 9.48
343.15 K, x1 = 0.0122 | – | – | 0.59
343.15 K, x1 = 0.0451 | – | – | 1.1
343.15 K, x1 = 0.0999 | – | – | 2.25
343.15 K, x1 = 0.143 | – | – | 3.24
343.15 K, x1 = 0.2051 | – | – | 4.81
343.15 K, x1 = 0.3064 | – | – | 7.09
343.15 K, x1 = 0.4879 | – | – | 9.28
343.15 K, x1 = 0.6684 | – | – | 9.64
343.15 K, x1 = 0.974 | – | – | 8.7
